Measured values taken from patent publication US20240343717A1, “MICROBIOCIDAL PYRAZOLE DERIVATIVES” (SYNGENTA CROP PROTECTION AG, priority 2021, published 2024).

Assays:
Pyrenophora teres = Pyrenophora teres / barley / leaf disc preventative (net blotch); assay type: in vivo; conditions: foliar, barley leaf segments, inoculated 2 days after application
In short: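 Barley cv. Hasso leaf segments on agar sprayed with formulated compound, inoculated with spores 2 days later. Incubated at 20 °C, 65% rh, 12 h light/dark; disease control versus untreated assessed 5–7 days after application.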

[1] = tested on: Blumeria graminis f. sp. tritici (Erysiphe graminis f. sp. tritici); assay: Blumeria graminis f. sp. tritici / wheat / leaf disc preventative (powdery mildew on wheat); assay type: in vivo; conditions: foliar, wheat leaf segments, inoculated 1 day after application
In short: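 Wheat cv. Kanzler leaf segments on agar sprayed with formulated compound in water, inoculated 1 day later by shaking mildew-infected plants overhead. Incubated at 20° C, 60% rh, 24 h dark then 12 h light/12 h dark. Percent disease control versus untreated scored 6-8 days after application.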

[2] = tested on: Magnaporthe grisea (Pyricularia Oryzae); assay: whole plant or invertebrate; assay type: in vivo; conditions: foliar, read-out: control of Magnaporthe grisea
[3] = tested on: Phaeosphaeria nodorum (Septoria nodorum); assay: Phaeosphaeria nodorum (Septoria nodorum) / wheat / leaf disc preventative (glume blotch); assay type: in vivo; conditions: Parastagonospora nodorum, foliar, wheat leaf segments, inoculated 2 days after application
In short: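 Wheat cv. Kanzler leaf segments on agar sprayed preventatively with formulated compound diluted in water, then inoculated with spore suspension 2 days after application. Incubated at 20° C, 75% rh, 12 h light/12 h dark; percent disease control versus untreated scored 5-7 days after application.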

[4] = tested on: Mycosphaerella arachidis (Cercospora arachidicola); assay: Mycosphaerella arachidis (Cercospora arachidicola) / liquid culture (early leaf spot); assay type: cell-based; conditions: growth inhibition photometrically 4-5 days after application, read-out: control of Mycosphaerella arachidis
In short: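 Spores taken straight from cryostorage are suspended in potato dextrose broth and added to test compound in DMSO. Plates are incubated at 24° C. Growth inhibition is scored photometrically 4-5 days after application.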

[5] = tested on: Glomerella lagenarium (Colletotrichum lagenarium); assay: Glomerella lagenarium (Colletotrichum lagenarium) / liquid culture (anthracnose); assay type: cell-based; conditions: Colletotrichum orbiculare, growth inhibition photometrically 3-4 days after application, read-out: control of Glomerella lagenarium
In short: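 Cryo-stored conidia in potato dextrose broth were added to test compound in DMSO. Plates were incubated at 24° C, and growth inhibition was read photometrically 3-4 days after application.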

[6] = tested on: Mycosphaerella graminicola (Septoria tritici); assay: Mycosphaerella graminicola (Septoria tritici) / liquid culture (Septoria blotch); assay type: cell-based; conditions: Zymoseptoria tritici, growth inhibition photometrically 4-5 days after application, read-out: control of Mycosphaerella graminicola
In short: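 Conidia suspended in potato dextrose broth and added to test compound supplied in DMSO in 96-well plates. Incubated at 24 °C, and growth inhibition read photometrically 4-5 days after application.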

Alternaria solani = Alternaria solani / tomato / leaf disc (early blight); assay type: in vivo; conditions: foliar, tomato leaf disks, sprayed 2 days before inoculation, compared to untreated control
Method: Example B1: Alternaria solani/Tomato/Leaf Disc (Early Blight) Tomato leaf disks cv. Baby are placed on agar in multiwell plates (24-well format) and sprayed with the formulated test compound diluted in water. The leaf disks are inoculated with a spore suspension of the fungus 2 days after application. The inoculated leaf disks are incubated at 23° C./21° C.

Sclerotinia sclerotiorum = Sclerotinia sclerotiorum / liquid culture (cottony rot); assay type: cell-based; conditions: growth inhibition photometrically 3-4 days after application, read-out: control of Sclerotinia sclerotiorum
In short: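 Mycelial fragments from fresh liquid culture in potato dextrose broth added to test compound in DMSO. Incubation at 24° C; growth inhibition read photometrically 3-4 days after application.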

[7] = tested on: Botryotinia fuckeliana (Botrytis cinerea); assay: Botryotinia fuckeliana (Botrytis cinerea) / liquid culture (gray mould); assay type: cell-based; conditions: growth inhibition photometrically 3-4 days after application, read-out: control of Botryotinia fuckeliana
In short: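 Conidia suspended in Vogels broth and added to compound dispensed from DMSO. Incubated at 24°C, with growth inhibition measured photometrically 3–4 days later.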

[8] = tested on: Monographella nivalis (Microdochium nivale); assay: Monographella nivalis (Microdochium nivale) / liquid culture (foot rot cereals); assay type: cell-based; conditions: growth inhibition photometrically 4-5 days after application, read-out: control of Monographella nivalis
In short: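 Fungal conidia mixed directly into potato dextrose broth and added to test compound delivered in DMSO. Incubated at 24° C; growth inhibition read photometrically 4-5 days after application.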

Fusarium culmorum [9] = assay: whole plant or invertebrate; assay type: in vivo; conditions: in Triticum aestivum, read-out: control of Fusarium culmorum
Fusarium culmorum [10] = assay: microbe, parasite or virus in culture; assay type: cell-based; conditions: read-out: control of Fusarium culmorum
[11] = tested on: Gibberella zeae (Fusarium graminearum); assay: whole plant or invertebrate; assay type: in vivo; conditions: in Triticum aestivum, read-out: control of Gibberella zeae

Row | Compound | pest or weed control at 200 ppm (Pyrenophora teres) [%] | pest or weed control at 200 ppm [1] [%] | pest or weed control at 200 ppm [2] [%] | pest or weed control at 200 ppm [3] [%] | inhibition of growth at 20 ppm [4] [%] | inhibition of growth at 20 ppm [5] [%] | inhibition of growth at 20 ppm [6] [%] | pest or weed control at 200 ppm (Alternaria solani) [%] | inhibition of growth at 20 ppm (Sclerotinia sclerotiorum) [%] | inhibition of growth at 20 ppm [7] [%] | inhibition of growth at 20 ppm [8] [%] | pest or weed control at 200 ppm (Fusarium culmorum [9]) [%] | inhibition of growth at 20 ppm (Fusarium culmorum [10]) [%] | pest or weed control at 200 ppm [11] [%] | melting point [°C]
1 | Cn1cc(C(CNC(=O)c2cc(-c3ccc(F)cc3F)on2)c2cnccn2)cn1 (stereo not drawn) [Compound P-8, 5-(2,4-difluorophenyl)-N-[2-(1-methylpyrazol-4-yl)-2-pyrazin-2-yl-ethyl]isoxazole-3-carboxamide] | ≥ 80 | ≥ 80 | ≥ 80 |  |  |  |  |  |  |  |  |  |  |  | 
2 | Cn1cc(C(C)(CNC(=O)c2cc(-c3ccc(F)cc3F)on2)c2cccc(Cl)n2)cn1 (stereo not drawn) [Compound P-10, N-[2-(6-chloro-2-pyridyl)-2-(1-methylpyrazol-4-yl)propyl]-5-(2,4-difluorophenyl)isoxazole-3-carboxamide] | ≥ 80 | ≥ 80 | ≥ 80 | ≥ 80 | ≥ 80 | ≥ 80 | ≥ 80 | ≥ 80 | ≥ 80 | ≥ 80 | ≥ 80 | ≥ 80 | ≥ 80 |  | 
3 | Cn1cc(C(C)(CNC(=O)c2cc(-c3ccc(F)cc3F)on2)c2cccc(C#N)n2)cn1 (stereo not drawn) [Compound P-15, N-[2-(6-cyano-2-pyridyl)-2-(1-methylpyrazol-4-yl)propyl]-5-(2,4-difluorophenyl) isoxazole-3-carboxamide] | ≥ 80 | ≥ 80 | ≥ 80 | ≥ 80 | ≥ 80 | ≥ 80 | ≥ 80 | ≥ 80 |  | ≥ 80 | ≥ 80 |  | ≥ 80 |  | 
4 | Cn1ncc(C(C)(CNC(=O)c2cc(-c3ccc(F)cc3F)on2)c2cccc(Cl)n2)c1Cl (stereo not drawn) [Compound P-26, N-[2-(5-chloro-1-methyl-pyrazol-4-yl)-2-(6-chloro-2-pyridyl)propyl]-5-(2,4-difluorophenyl) isoxazole-3-carboxamide] | ≥ 80 | ≥ 80 | ≥ 80 | ≥ 80 | ≥ 80 | ≥ 80 | ≥ 80 | ≥ 80 | ≥ 80 | ≥ 80 | ≥ 80 |  | ≥ 80 | ≥ 80 | 
5 | Cn1cc([C@](C)(CNC(=O)c2nnc(-c3ccc(F)cc3F)s2)c2cccc(Cl)n2)cn1 [Compound P-35, N-[(2R)-2-(6-chloro-2-pyridyl)-2-(1-methylpyrazol-4-yl)propyl]-5-(2,4-difluorophenyl)-1,3,4-thiadiazole-2-carboxamide] | ≥ 80 | ≥ 80 |  | ≥ 80 | ≥ 80 | ≥ 80 | ≥ 80 | ≥ 80 | ≥ 80 | ≥ 80 | ≥ 80 | ≥ 80 | ≥ 80 | ≥ 80 | 
6 | COc1cc(Cl)nc(C(C)(CNC(=O)c2cc(-c3ccc(F)cc3F)on2)c2cnn(C)c2)c1 (stereo not drawn) [Compound P-36, N-[2-(6-chloro-4-methoxy-2-pyridyl)-2-(1-methylpyrazol-4-yl)propyl]-5-(2,4-difluorophenyl) isoxazole-3-carboxamide] | ≥ 80 | ≥ 80 |  |  | ≥ 80 | ≥ 80 | ≥ 80 |  |  | ≥ 80 | ≥ 80 | ≥ 80 | ≥ 80 | ≥ 80 | 157 to 159
7 | COC(=O)c1cccc(C(C)(CNC(=O)c2cc(-c3ccc(F)cc3F)on2)c2cnn(C)c2)n1 (stereo not drawn) [Compound P-39, methyl 6-[2-[5-(2,4-difluorophenyl)isoxazole-3-carbonyl]amino]-1-methyl-1-(1-methylpyrazol-4-yl)ethyl]pyridine-2-carboxylate] |  |  | ≥ 80 | ≥ 80 |  | ≥ 80 | ≥ 80 |  |  | ≥ 80 | ≥ 80 |  |  |  | 
8 | CO/N=C(\C)c1cccc(C(C)(CNC(=O)c2cc(-c3ccc(F)cc3F)on2)c2cnn(C)c2)n1 (stereo not drawn) [Compound P-49, 5-(2,4-difluorophenyl)-N-[2-[6-[(E)-N-methoxy-C-methyl-carbonimidoyl]-2-pyridyl]-2-(1-methylpyrazol-4-lyl)propyl]isoxazole-3-carboxamide] | ≥ 80 | ≥ 80 | ≥ 80 | ≥ 80 | ≥ 80 | ≥ 80 | ≥ 80 | ≥ 80 | ≥ 80 | ≥ 80 | ≥ 80 | ≥ 80 | ≥ 80 |  | 
9 | Cc1cccc(C(C)(CNC(=O)c2cc(-c3ccc(F)cc3F)on2)c2cnn(C)c2Cl)n1 (stereo not drawn) [Compound P-73, N-[2-(5-chloro-1-methyl-pyrazol-4-yl)-2-(6-methyl-2-pyridyl)propyl]-5-(2,4-difluorophenyl) isoxazole-3-carboxamide] | ≥ 80 | ≥ 80 |  | ≥ 80 | ≥ 80 | ≥ 80 | ≥ 80 | ≥ 80 | ≥ 80 | ≥ 80 | ≥ 80 | ≥ 80 | ≥ 80 | ≥ 80 | 
10 | CC(C)Nc1cccc(C(C)(CNC(=O)c2cc(-c3ccc(F)cc3F)on2)c2cnn(C)c2)n1 (stereo not drawn) [Compound P-103, 5-(2,4-difluorophenyl)-N-[2-[6-(isopropylamino)-2-pyridyl]-2-(1-methylpyrazol-4-yl)propyl]isoxazole-3-carboxamide] |  |  | ≥ 80 |  |  |  | ≥ 80 |  |  |  | ≥ 80 |  |  |  | 
11 | Cc1ccc(C(C)(CNC(=O)c2cc(-c3ccc(F)cc3F)on2)c2cnn(C)c2)nc1Br (stereo not drawn) [Compound P-110, N-[2-(6-bromo-5-methyl-2-pyridyl)-2-(1-methylpyrazol-4-yl)propyl]-5-(2,4-difluorophenyl) isoxazole-3-carboxamide] | ≥ 80 | ≥ 80 | ≥ 80 | ≥ 80 | ≥ 80 | ≥ 80 | ≥ 80 | ≥ 80 | ≥ 80 | ≥ 80 | ≥ 80 |  | ≥ 80 |  | 
